Assay results: BindingDB's records for patent US8703811 (Genzyme, 2014)

Columns and labels:
[1] = biological target: T1, Dihydroorotate dehydrogenase (fumarate) (Saccharomyces cerevisiae (strain ATCC 204508 / S288c), UniProt P28272); assay: Enzymatic Assays
T1 sequence (P28272 whole entry): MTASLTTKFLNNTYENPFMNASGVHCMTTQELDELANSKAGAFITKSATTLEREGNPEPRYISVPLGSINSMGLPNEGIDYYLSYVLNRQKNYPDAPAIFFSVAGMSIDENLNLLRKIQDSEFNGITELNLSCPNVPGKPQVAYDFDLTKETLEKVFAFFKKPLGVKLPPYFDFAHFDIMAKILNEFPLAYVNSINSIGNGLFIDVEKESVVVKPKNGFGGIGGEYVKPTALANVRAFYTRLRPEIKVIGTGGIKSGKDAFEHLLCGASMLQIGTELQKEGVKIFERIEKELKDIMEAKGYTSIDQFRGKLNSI
Description: (§1) Type 2 DHODH activity was monitored with either the direct assay measuring the formation of orotate or via a chromogen reduction assay using DCIP. Although the extinction coefficient and absorption wavelength are preferable for the chromogen reduction assay, the inorganic electron acceptor DCIP can be utilized by DHODH as the final electron acceptor in lieu of CoQn when the endogenous substrate is at a low concentration. As such, the direct assay was used to measure the binding affinity of pfDHODH to CoQD and L-DHO. The enzymatic reaction was performed by varying the L-DHO concentration (1-400 μM) or CoQD concentration (1-200 μM) while keeping the other substrate constant and in excess.

[2] = biological target: T2, Dihydroorotate dehydrogenase (quinone), mitochondrial [100-517] (Plasmodium berghei (strain Anka), UniProt A0A509AEH5); assay: Enzymatic Assays
T2 construct: 100-517
T2 sequence (A0A509AEH5 whole entry): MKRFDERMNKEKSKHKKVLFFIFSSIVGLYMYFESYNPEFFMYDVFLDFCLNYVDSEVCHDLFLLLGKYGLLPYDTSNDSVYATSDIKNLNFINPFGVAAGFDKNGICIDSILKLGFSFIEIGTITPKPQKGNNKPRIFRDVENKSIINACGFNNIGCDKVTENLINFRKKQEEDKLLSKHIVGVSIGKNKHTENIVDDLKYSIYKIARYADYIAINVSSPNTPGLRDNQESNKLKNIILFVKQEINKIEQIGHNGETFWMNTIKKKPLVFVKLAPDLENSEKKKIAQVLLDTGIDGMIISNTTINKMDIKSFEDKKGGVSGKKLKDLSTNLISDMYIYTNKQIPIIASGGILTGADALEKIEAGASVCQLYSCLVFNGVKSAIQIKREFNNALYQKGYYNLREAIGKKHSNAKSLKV
Description: as §1

## Cc1ccccc1/C=C/c1cc(O)c2ccccc2n1 [US8703811, 2]
[1]
  IC50: > 10 µM

## Fc1cc(I)ccc1Nc1ccnc2cc(Cl)ccc12 [US8703811, 4]
[2]
  IC50: > 10 µM
